Measured values published in patent US5540917A, “Biomass lipase inhibitor useful for treating adiposity” (Hoffmann-La Roche Inc., priority 1992, dated 1996).

Key:
[1] = test system: fat absorption; assay: Fat absorption (C-14 triolein) in mice on fat diet, single and repeated administration of LOC; assay type: in vivo, Albino mice; conditions: LOC 50 mg/kg body wt.
Description: Determination of the activity of a lipase inhibitor using the lipstatin derivative LOC defined above, by way of example, on the fat s absorption from the feed in the case of single and repeated administration to mice was undertaken.
3 Albino mice weighing 25 g were used per dose in the test.
The mice received over several days a so-called fat diet in which the fat content was adjusted such that the mice received 23.4 g of fat per kg body wt. per day. The mice were fed with this feed for 8 days. On days 3 to 6 of the test C-14, labelled triolein and LOC in a dose of 50 mg/kg body weight were admixed with this feed. The feces of the mice was collected at intervals of 24 hours from days 4 to 8 of the test and evaluated according to the guidelines given in Example 1.
The control animals each received the test diet without the LOC active substance.
The absorption of the orally administered fat was measured as in Examples 1, and 2.

[2] = test system: fat absorption; assay: Dog test: fat absorption (C-14 triolein), LST in the fermentation cake alone or with cellulose; assay type: in vivo, dogs; conditions: even when present in a fermentation cake; confirms mouse test
Description: Female dogs aged 7 to 15 years and having a body weight between 13 and 22 kg are divided into 2 groups each of 6 animals. The animals are fed with a standard dog food. The animals have free access to drinking water.
The animals are given a test meal on the day of the test. This test meal contains as feed components 7.5% protein, 19% is carbohydrate, 6% fat, 1.6% minerals, 45% water and 20% ballast materials. The fat of the feed consists of 58% olive oil treated with C-14 triolein. The remaining fat is composed predominantly of saturated fatty acids.
The absorption of the fat administered orally with the test diet was measured on the basis of the recovered radioactivity in the feces of the dogs. The difference between the orally-administered amount of C-14 labelled triolein and the radioactivity found in the feces within three days after intake of the test meal is considered to be absorbed fat. The absorbed amount is given as a percentage of the administered amount. The lower the absorption is, that is, the lower the percentage is, then the greater is the activity of the lipase inhibitor.
Microbiologically-produced lipstatin (LST) is used as the lipase inhibitor in both parts of the test. […] The content of LST in the cake was determined at 4 g of LST per kg of fresh fermentation cake using conventional analytical methods. […]

[3] = test system: fat absorption; assay: Mouse test: fat absorption (C-14 triolein), pure LST versus LST in a fermentation cake; assay type: in vivo; conditions: oral, 3 mice
Method: Microbiologically-produced lipstatin (LST) is used as the lipase inhibitor in both parts of the test. LST is equivalent as a chemically pure substance with LST as a component of a fermentation cake produced according to Example 4 of EP 129 748. The content of LST in the cake was determined at 4 g of LST per kg of fresh fermentation cake using conventional analytical methods.
a) Mouse test Comparison of chemically pure LST with LST as a component of a fermentation cake.
Pure LST or the dried fermentation cake was suspended in 5% gum arabic/5% lactose preparation, conventional in pharmacological tests, and administered orally to animals, which had been pre-fasted for 24 hours, in an amount of 10 ml/kg per mouse immediately after a liquid test meal. The test meal contained 2.5% starch, 24% glucose, 12% lactose and 7.6% olive oil labelled with C-14 triolein. Thereafter, the mice received a conventional standard feed.
The calculation of the absorbed fat in the feed was carried out as described in Example 1.
The results of the test are reported in Table 3 in which the LST dose is calculated per mg/kg body weight. The values are average values calculated from measurements on, in each case, 3 mice per test.

[4] = Blood plasma total glycerol in dogs after a test meal with THL and cellulose; assay type: in vivo; conditions: 50 mg THL + 80 g cellulose
Description: Female dogs aged 7 to 15 years and having a body weight between 13 and 22 kg are divided into 2 groups each of 6 animals. The animals are fed with a standard dog food. The animals have free access to drinking water. The animals are given a test meal on the day of the test. This test meal contains as feed components 7.5% protein, 19% is carbohydrate, 6% fat, 1.6% minerals, 45% water and 20% ballast materials. The fat of the feed consists of 58% olive oil treated with C-14 triolein. The remaining fat is composed predominantly of saturated fatty acids. The blood plasma concentrations with respect to total glycerol of dogs which received test diet of 50 mg THL +80 g cellulose have been compared in Table 2 with those of a control without THL, but with cellulose.

[5] = Consistency of feces of the dogs; assay type: in vivo
[6] = test system: fat absorption; assay: Fat absorption from test meal in dogs (C-14 triolein recovery in feces), THL with or without cellulose; assay type: in vivo; conditions: for Triolein absorption in % of the applied dose: 26 g fat
Description: Female dogs aged 7 to 15 years and having a body weight between 13 and 22 kg are divided into 2 groups each of 6 animals. The animals are fed with a standard dog food. The animals have free access to drinking water. The animals are given a test meal on the day of the test. This test meal contains as feed components 7.5% protein, 19% is carbohydrate, 6% fat, 1.6% minerals, 45% water and 20% ballast materials. The fat of the feed consists of 58% olive oil treated with C-14 triolein. The remaining fat is composed predominantly of saturated fatty acids. The absorption of the fat administered orally with the test diet was measured on the basis of the recovered radioactivity in the feces of the dogs. The difference between the orally-administered amount of C-14 labelled triolein and the radioactivity found in the feces within three days after intake of the test meal is considered to be absorbed fat. The absorbed amount is given as a percentage of the administered amount. The lower the absorption is, that is, the lower the percentage is, then the greater is the activity of the lipase inhibitor.

## CCCCCCCCCCCCCCCCC[C@@H](C[C@@H]1OC(=O)[C@H]1CC)OC(=O)[C@H](CC(C)C)NC=O [LOC, N-formyl-L-leucine (S)-1-[[(2S,3S)-3-ethyl-4-oxo-2-oxetanyl]methyl]octadecyl ester]
[1]; 1st day
  Triolein absorption in % of the amount given orally (±SDM): 26 ± 4%
[1]; 4th day
  Triolein absorption in % of the amount given orally (±SDM): 26 ± 3%

## CCCCCCCCCCC[C@@H](C[C@@H]1OC(=O)[C@H]1CCCCCC)OC(=O)[C@H](CC(C)C)NC=O [pure LST, lipstatin]
[2]
  lipase inhibitor activity: very active lipase inhibitor
[3]; LST dose 5.0 mg/kg
  Triolein absorption in % per dose administered: 69%
[3]; LST dose 15 mg/kg
  Triolein absorption in % per dose administered: 52%
[3]; LST dose 50.0 mg/kg
  Triolein absorption in % per dose administered: 41%

## CCCCCCCCCCC[C@@H](C[C@@H]1OC(=O)[C@H]1CCCCCC)OC(=O)[C@H](CC(C)C)NC=O [THL, tetrahydrolipstatin]
[4]; 3 hrs. after administration
  Total plasma glycerol: 0.5 ± 0.02 mmol/l ± SEM
[4]; 7 hrs. after administration
  Total plasma glycerol: 0.9 ± 0.13 mmol/l ± SEM
[4]; before administration (starting value)
  Total plasma glycerol: 0.7 ± 0.07 mmol/l ± SEM
[4]; 3 hours after test meal
  plasma glycerol increase: no increase
[4]; 7 hours postprandial
  increase in the absorption: slight increase
[5]; THL in combination with cellulose
  consistency of the feces: solid and formed
[5]; THL without cellulose
  consistency of the feces: rather pulp-like
[6]; 50 mg THL + 80 g cellulose
  attenuated fat absorption: 28%
[6]; THL 20 mg/test meal (1.5 mg/kg body wt.) + 80 g cellulose, 420 g test meal
  Triolein absorption in % of the applied dose: 48%
[6]; THL 20 mg/test meal (1.5 mg/kg body wt.), no cellulose, 340 g test meal
  Triolein absorption in % of the applied dose: 70%
[6]; THL 50 mg/test meal (4 mg/kg body wt.) + 80 g cellulose, 420 g test meal
  Triolein absorption in % of the applied dose: 28%
[6]; THL 50 mg/test meal (4 mg/kg body wt.), no cellulose, 340 g test meal
  Triolein absorption in % of the applied dose: 63%
[6]; THL + cellulose versus THL alone
  activity of the lipase inhibitor when cellulose is added: considerably increased
[6]; THL after addition of cellulose (about)
  inhibition of the absorption of the administered radioactively labelled fat in the feed: 52-70%
[6]; THL as sole additive to the test meal, depending on the dose (20 or 50 mg/meal)
  reduction of the absorption of fat contained in the feed: 30-37%
